We go through two compounds from patent US6716829B2, “Aldosterone antagonist and cyclooxygenase-2 inhibitor combination therapy to prevent or treat inflammation-related cardiovascular disorders” (Pharmacia Corporation, priority 2000, dated 2004).

The structures appear in SMILES notation. Entries after “also recorded” stand apart in the source; their conditions may differ.

The subject of one assay is osteopontin. Kind of assay: Assay B: serum (circulating) osteopontin levels at 28 days. To be noted: NaCl 1% drinking rats with aldosterone and eplerenone. Type of assay: in vivo, Male Sprague Dawley rats. The method, then: (§1) Assay B: In Vivo Aldosterone Infusion Model Male Sprague Dawley rats (n=39; BW=250 g) 2. Aldosterone (0.75 mg/hr, sc via alzet minipump) 2.
The next assay deals with MCP-1. Nature of the assay: Assay B: MCP-1 mRNA expression at 28 days. The conditions noted are these: aldosterone infused rats, 28 days (FIG. 46). It counts as in vivo, Male Sprague Dawley rats. As to the method:
as §1

In assay [1] the test system is angiotensin II infused, captopril treated stroke prone spontaneously hypertensive rats. Nature of the assay: Urinary protein excretion in angiotensin II infused, captopril treated stroke prone spontaneously hypertensive rats. It counts as in vivo. To be noted: captopril treated stroke prone spontaneously hypertensive rats (FIG. 35).
For assay [2] the test system is unchanged. Nature of the assay: Histopathological scores for renal injury in angiotensin II infused, captopril treated stroke prone spontaneously hypertensive rats. It counts as in vivo. The conditions noted are these: captopril treated stroke prone spontaneously hypertensive rats (FIG. 36).
Assay [3] has as its system stroke-prone spontaneously hypertensive rats. Kind of assay: Survival and cerebral injury in stroke-prone spontaneously hypertensive rats. It counts as in vivo.
For another assay, the system named is interstitial collagen. Kind of assay: Assay B: myocardial fibrosis (interstitial collagen volume fraction, hydroxyproline concentration). It counts as in vivo, Male Sprague Dawley rats. The conditions noted are these: aldosterone/salt treatment, 4 weeks. As to the method:
Assay B: In Vivo Aldosterone Infusion Model Male Sprague Dawley rats (n=39; BW=250 g) […] Uni-nephrectomy performed during implantation of mini-pumps 2. Aldosterone ([…], sc via alzet minipump) 2. […] Hearts were stained with hematoxylin&eosin and the collagen specific dye picro-sirius red and were analyzed for determination of interstitial collagen volume fraction and morphologic abnormalities (i.e. necrosis, vascular injury). Hydroxyproline concentration was measured in the frozen hearts.

The test system of the next assay is COX-2. Nature of the assay: Assay B: COX-2 mRNA in heart by quantitative RT-PCR (Taqman). Type of assay: in vivo, Male Sprague Dawley rats. As to the method: Assay B: In Vivo Aldosterone Infusion Model Male Sprague Dawley rats (n=39; BW=250 g) 2. Aldosterone ([…], sc via alzet minipump) 2. […] Hearts were harvested and divided by half through a transverse section at the mid-ventricles: The upper half was stored into formalin. The bottom part was snap-frozen in liquid nitrogen for biochemical analysis. Determination of osteopontin and COX-2 was performed by quantitative RT-PCR (Taqman). Osteopontin was also identified in the heart by immunohistochemistry.
In general terms: In qPCR the cycle at which signal appears reflects the starting amount.

As to `COC(=O)[C@@H]1CC2=CC(=O)CC[C@]2(C)[C@@]23O[C@@H]2C[C@@]2(C)[C@@H](CC[C@@]24CCC(=O)O4)[C@H]13` [Eplerenone], in the assay on osteopontin, the “Circulating (serum) osteopontin levels” value was “marked decrease”. In addition, in the assay on MCP-1, the MCP-1 expression result is reported as “attenuated”. Besides, the “Increased urinary protein excretion” value in assay [1] is recorded as “inhibition”. Further, the “Histopathological scores for renal injury” value in assay [2] was “reduction”. Besides, the Survival result in assay [3] (stroke-prone spontaneously hypertensive rats (FIG. 37)) was “increased survival”. Besides, in assay [3] (stroke-prone spontaneously hypertensive rats (FIGS. 37, 38)), the Cerebral injury result is given as “reduced cerebral injury; also recorded: decrease”.
In the case of `C[C@]12CCC(=O)C=C1CC[C@@H]1[C@@H]2[C@@H](O)C[C@]2(C=O)[C@@H](C(=O)CO)CC[C@@H]12` [Aldosterone], in the assay with interstitial collagen, the “Myocardial fibrosis (interstitial collagen volume fraction, hydroxyproline concentration)” value was “absence of myocardial fibrosis”. Moreover, the “COX-2 mRNA expression increase” value in the assay with COX-2 (aldosterone/salt + vehicle vs control) came out at 3 fold. For the same compound, the “COX-2 relative mRNA expression” value in the assay with COX-2 (hearts of aldosterone/salt-treated rats, quantitative RT-PCR, eplerenone 100 mpk) is 3.7±0.46.
